Results on 13 compounds are retold here after PubChem BioAssay (NCI).

Values joined by “and” are separate entries in the source; they are usually repeats but may differ in a detail not shown here. Equal values may be shown once.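 Where inhibition never reached the appropriate level, the endpoint shown equals the highest concentration tested. Otherwise, values were interpolated linearly from a five-concentration, 48-hour dose response in 96-well plates. Here, GI50 denotes the concentration required for 50% inhibition of growth. Definition used: TGI = concentration required for complete inhibition of growth.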

Some test systems named below: UACC-257 melanoma; SNB-75 CNS; HT29 colon; SNB-78 CNS; HCT-116 colon; SF-295 CNS; M14 melanoma; LOX IMVI melanoma; DMS 114 small cell lung; HS 578T breast.
What all share (experiment): NCI anticancer screen, dose series, 48 h

Take `CC(C)(C)C1CCC(O)(c2ccccc2)CC1` (stereo unspecified): the TGI in the assay on UACC-257 melanoma was > 100 µM and 48.2 µM; in the assay with SNB-75 CNS it was > 100 µM and 60 µM; with HT29 colon, > 100 µM and 30.2 µM; with SNB-78 CNS, > 100 µM and 57 µM; in the assay with HCT-116 colon it was > 100 µM and 47.9 µM; with SF-295 CNS, more than 100 µM. The TGI in the assay with M14 melanoma is > 100 µM and 42.8 µM; in the assay on LOX IMVI melanoma it was > 100 µM and 30.3 µM; in the assay on DMS 114 small cell lung, > 100 µM and 52.5 µM.
Turning to `COc1ccc2cc3n(c(=O)c2c1)CCc1c-3cc(OC)c(OC)c1OC`, the TGI with UACC-257 melanoma is more than 100 µM; in the assay with SNB-75 CNS, 98.6 µM; in the assay on HT29 colon, more than 100 µM; in the assay on SNB-78 CNS, more than 100 µM; in the assay on HCT-116 colon, more than 100 µM; in the assay on SF-295 CNS, more than 100 µM. Also, the TGI in the assay with M14 melanoma and with DMS 114 small cell lung was more than 100 µM each time.
For the compound `CN(C)c1ccc(/C=c2/sc3nc(=O)c(-c4ccccc4NC(=O)C(F)(F)F)nn3c2=O)cc1`, the TGI with SNB-75 CNS, in the assay on HT29 colon, in the assay on SNB-78 CNS, with SF-295 CNS, in the assay with M14 melanoma and with LOX IMVI melanoma was more than 100 µM each time. Moreover, in the assay with DMS 114 small cell lung, the TGI is 57.2 µM.
In the case of `CNS(=O)(=O)NNS(=O)(=O)c1ccc(C)cc1`, the TGI with UACC-257 melanoma, in the assay with HT29 colon, in the assay on HCT-116 colon, with SF-295 CNS, with M14 melanoma and with DMS 114 small cell lung was more than 100 µM throughout.
For the compound `CN(C)c1ccc(/C=C2\CCc3ccccc3C2=O)cc1Br`, the TGI in the assay on UACC-257 melanoma, in the assay on SNB-75 CNS, in the assay on HT29 colon, in the assay with SNB-78 CNS, in the assay on HCT-116 colon and in the assay with SF-295 CNS was more than 100 µM each time. For the same compound, the TGI in the assay with M14 melanoma and in the assay with LOX IMVI melanoma was more than 100 µM each time.
For `CCCCC(C(=O)C(=O)Nc1ccccc1CC)C(=O)C(C)C` (stereo unspecified), the TGI in the assay with UACC-257 melanoma, in the assay with HT29 colon, in the assay with SNB-78 CNS, in the assay with HCT-116 colon, with SF-295 CNS and in the assay on M14 melanoma was more than 100 µM in each case. In addition, the TGI in the assay on LOX IMVI melanoma and with DMS 114 small cell lung was more than 100 µM in each case.
On to `CC(C)CCCC(C)C1CCC2C3CC([N+](=O)[O-])=C4CC(O)CCC4(C)C3CCC12C` (stereo unspecified), for which the TGI in the assay on UACC-257 melanoma was determined as 37.5 µM; in the assay on SNB-75 CNS, 41.5 µM; in the assay on HT29 colon, 55.5 µM; with HCT-116 colon, 28.9 µM; with SF-295 CNS it was 30 µM; in the assay on M14 melanoma, 28.8 µM. Also, the TGI was 36.6 µM in the assay on LOX IMVI melanoma and 45.7 µM in the assay with DMS 114 small cell lung.
With `CC1(C)CC(=O)C(C(=O)Nc2cccs2)=C(O)C1`, the TGI in the assay on UACC-257 melanoma is more than 100 µM; in the assay with SNB-75 CNS it was 59.3 µM; with HT29 colon, more than 100 µM; in the assay with SNB-78 CNS, more than 100 µM; with HCT-116 colon, more than 100 µM; in the assay with SF-295 CNS, more than 100 µM. Moreover, the TGI with M14 melanoma and in the assay with LOX IMVI melanoma was more than 100 µM throughout.
For the compound `N#C[Se]CCN1C(=O)c2ccccc2C1=O`, the GI50 is 2.51 µM in the assay with UACC-257 melanoma; 2.09 µM in the assay on SNB-75 CNS; 2.84 µM with HT29 colon; 1.06 µM with HCT-116 colon; 1.65 µM in the assay on SF-295 CNS; 1.43 µM with HS 578T breast. Besides, the GI50 was 1.21 µM in the assay on M14 melanoma and 1.8 µM in the assay on LOX IMVI melanoma. Moreover, the TGI came to 11 µM in the assay on UACC-257 melanoma; 5.56 µM in the assay on SNB-75 CNS; 8.29 µM in the assay on HT29 colon; 3.23 µM in the assay with HCT-116 colon; 3.7 µM in the assay on SF-295 CNS; 6.09 µM in the assay on HS 578T breast. Moreover, the values for the TGI in the assay with M14 melanoma and with LOX IMVI melanoma were 3.8 µM and 4.15 µM, respectively.
On to `O=C1NC(=NCc2cccs2)O/C1=C\c1ccc2ncccc2c1`, for which the GI50 in the assay with UACC-257 melanoma is 3.74 µM; in the assay on SNB-75 CNS, 1.72 µM; with HT29 colon, 6.12 µM; in the assay with HCT-116 colon it was 4.92 µM; with SF-295 CNS, 5.03 µM; in the assay with HS 578T breast, 4.72 µM. Further, the GI50 is 5 µM with M14 melanoma and 5.87 µM in the assay on LOX IMVI melanoma. In addition, the TGI in the assay on UACC-257 melanoma is 12.4 µM; in the assay with SNB-75 CNS, 8.08 µM; in the assay with HT29 colon, 21.2 µM; in the assay on HCT-116 colon, more than 25 µM; with SF-295 CNS it was 15.9 µM; with HS 578T breast, 14.8 µM. Further, the TGI amounted to 17 µM with M14 melanoma and 19.4 µM with LOX IMVI melanoma.
On to `Nc1cc(C(F)(F)F)c(-c2nc(N3CCOCC3)nc(N3CCOCC3)n2)cn1`, for which the GI50 with UACC-257 melanoma is 0.293 µM; in the assay on SNB-75 CNS, 0.118 µM; in the assay on HT29 colon, 0.214 µM; with HCT-116 colon, 0.605 µM; in the assay with SF-295 CNS, 0.226 µM; with HS 578T breast, 0.231 µM. The GI50 in the assay with M14 melanoma was 0.401 µM. The TGI in the assay with UACC-257 melanoma is 2.98 µM; in the assay with SNB-75 CNS, 2.19 µM; with HT29 colon, 36 µM; with HCT-116 colon it was more than 100 µM; in the assay on SF-295 CNS, 1.75 µM; in the assay with HS 578T breast, 1.46 µM. The TGI in the assay on M14 melanoma was 14.1 µM; in the assay with LOX IMVI melanoma, more than 35.1 µM.
As to `COc1cc2c(cc1C)NC(=O)/C2=C\c1ccc(Oc2ccccc2)cc1`, the GI50 in the assay on UACC-257 melanoma is 17.7 µM; in the assay with SNB-75 CNS, 21 µM; with HT29 colon, 12.2 µM; with HCT-116 colon it was 5.85 µM; in the assay with SF-295 CNS it was 17 µM; in the assay on HS 578T breast, 20.7 µM. In addition, the GI50 with M14 melanoma was 15.1 µM; in the assay on LOX IMVI melanoma it was 14 µM. In addition, the TGI stood at 34 µM in the assay on UACC-257 melanoma; 37.4 µM in the assay on SNB-75 CNS; 25.6 µM in the assay on HT29 colon; 17.7 µM with HCT-116 colon; 36.8 µM in the assay with SF-295 CNS; 46.9 µM with HS 578T breast. In addition, the TGI was determined as 29.2 µM in the assay with M14 melanoma and 27 µM in the assay on LOX IMVI melanoma.
On to `CCOC(=O)C#Cc1c(C(=O)OCC)nnn1[C@@H]1O[C@H](COC)[C@@H](OC)[C@H]1OC`, for which the GI50 with UACC-257 melanoma is 3.38 µM; with SNB-75 CNS, 11.9 µM; with HT29 colon, 2.86 µM; in the assay on HCT-116 colon, 3.33 µM; in the assay on SF-295 CNS, more than 100 µM; in the assay with HS 578T breast, 23.7 µM. Moreover, the values for the GI50 in the assay with M14 melanoma and in the assay with LOX IMVI melanoma were 3.27 µM and 1.16 µM, respectively. Besides, the TGI is 8.29 µM in the assay on UACC-257 melanoma; 24.2 µM in the assay with SNB-75 CNS; 6.49 µM with HT29 colon; 10.7 µM in the assay with HCT-116 colon; more than 100 µM in the assay with SF-295 CNS; 72.7 µM in the assay with HS 578T breast. The TGI in the assay with M14 melanoma is 10.8 µM; with LOX IMVI melanoma, 2.58 µM.
